Columns and labels:
CypD [1] = biological target: T1, CypD (Homo sapiens, UniProt P30405); assay: CypD binding assay (competition fluorescence polarisation with fluorescein-labelled cyclosporin)
Description: The binding capacity of the compounds were measured using a competition Fluorescence-Polarisation based assay with fluorescine labelled cyclosporin. The protocol used was adapted from Hausch et al, Med Chem lett 2010, p 536.

CypD [2] = biological target: T1, CypD; assay: SPR binding; conditions: SPR surface; read-out: SPR CypD (KDSS)
Description: Binding was confirmed on an SPR surface using a protocol adapted from Mori et al., J. Biomolecular Screening, 2009 p 419.

CypD [3] = biological target: T1, CypD; assay: CypD enzymatic assay (PPase-chymotrypsin coupled, suc-AAPF-p-NA substrate); type: biochemical; conditions: colorimetric
Description: The peptidyl-proline isomerase activity (PPase) was determined by using a PPase-chymotrypsin coupled assay with suc-AAPF-p-NA as substrated and colorimeric detection adapted from Liu et al., AnalBioChem, 2006 p 100.

T1 sequence (P30405 30-207): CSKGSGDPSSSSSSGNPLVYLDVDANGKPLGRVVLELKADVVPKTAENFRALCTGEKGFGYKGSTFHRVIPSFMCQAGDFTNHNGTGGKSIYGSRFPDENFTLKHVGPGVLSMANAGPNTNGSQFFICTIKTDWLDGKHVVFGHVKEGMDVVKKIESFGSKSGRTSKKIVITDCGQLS

Molecule | IC50 (CypD [1]) | Kd (CypD [2]) | IC50 (CypD [3])
O=C(NCC(=O)N1CCC[C@@H]1C(F)(F)F)NCc1ccc2c(c1)[C@@H]1C[C@H](N2)[C@H](O)CO1 [Compound 37, 1-(((2S,3S,6S)-3-hydroxy-2,3,4,6-tetrahydro-1H-2,6-methanobenzo[c][1,5]oxazocin-8-yl)methyl)-3-(2-oxo-2-((R)-2-(trifluoromethyl)pyrrolidin-1-yl)ethyl)urea] | 1000 to 100000 nM | 1000 to 100000 nM | 
O=C(NCC(=O)N1CCCC1c1ccccn1)NCc1ccc2c(c1)[C@H]1C[C@@H](N2)[C@H](O)CO1 (stereo partly drawn) [Compound 9, 1-(((2R,3S,6R)-3-hydroxy-2,3,4,6-tetrahydro-1H-2,6-methanobenzo[c][1,5]oxazocin-8-yl)methyl)-3-(2-oxo-2-(2-(pyridin-2-yl)pyrrolidin-1-yl)ethyl)urea] | 1000 to 100000 nM | < 1000 nM | 
O=C(NCC(=O)N1CCCC1)NCc1ccc2c(c1)[C@H]1C[C@@H](N2)[C@H](O)CO1 [Compound 12, 1-((1R,9R,10S)-10-Hydroxy-12-oxa-8-aza-tricyclo[7.3.1.02,7]trideca-2(7),3,5-trien-4-ylmethyl)-3-(2-oxo-2-pyrrolidin-1-yl-ethyl)-urea] | 1000 to 100000 nM | 1000 to 100000 nM | 1000 to 100000 nM
O=C(NCC(=O)N1CCC[C@@H]1CO)NCc1ccc2c(c1)[C@H]1C[C@@H](N2)[C@H](O)CO1 [Compound 14, 1-(((2R,3S,6R)-3-hydroxy-2,3,4,6-tetrahydro-1H-2,6-methanobenzo[c][1,5]oxazocin-8-yl)methyl)-3-(2-((R)-2-(hydroxymethyl)pyrrolidin-1-yl)-2-oxoethyl)urea] | 1000 to 100000 nM | 1000 to 100000 nM | 
CSc1ccccc1[C@H]1CCCN1C(=O)CNC(=O)CCc1ccc2c(c1)[C@@H]1C[C@H](N2)[C@H](O)CO1 [Compound 23, 3-((2S,3S,6S)-3-hydroxy-2,3,4,6-tetrahydro-1H-2,6-methanobenzo[c][1,5]oxazocin-8-yl)-N-(2-((R)-2-(2-(methylthio)phenyl)pyrrolidin-1-yl)-2-oxoethyl)propanamide] | 1000 to 100000 nM | 1000 to 100000 nM | 
3-((1R,9R,10S)-10-Hydroxy-12-oxa-8-aza-tricyclo[7.3.1.02,7]trideca-2(7),3,5-trien-4-yl)-N-(2-oxo-2-pyrrolidin-1-yl-ethyl)-propionamide [Compound 26] | 1000 to 100000 nM | 1000 to 100000 nM | 
CCN1Cc2cc(CCC(=O)NCC(=O)N3CCCC3)ccc2NCCC1=O [Compound 27, 3-(5-Ethyl-4-oxo-1,2,3,4,5,6-hexahydro-benzo[b][1,5]diazocin-8-yl)-N-(2-oxo-2-pyrrolidin-1-yl-ethyl)-propionamide] | 1000 to 100000 nM | 1000 to 100000 nM | 
CSc1ccccc1[C@H]1CCCN1C(=O)CNC(=O)NC(C)c1ccc2c(c1)CCCC(=O)N2 (stereo partly drawn) [Compound 21, 1-{2-[(R)-2-(2-Methylsulfanyl-phenyl)-pyrrolidin-1-yl]-2-oxo-ethyl}-3-[1-(2-oxo-2,3,4,5-tetrahydro-1H-benzo[b]azepin-7-yl)-ethyl]-urea] | 1000 to 100000 nM | 1000 to 100000 nM | 
CSc1ccccc1[C@H]1CCCN1C(=O)CCC(=O)NCc1ccc2c(c1)[C@H]1C[C@@H](N2)[C@H](O)CO1 [Compound 2, N-((1R,9R,10S)-10-Hydroxy-12-oxa-8-aza-tricyclo[7.3.1.02,7]trideca-2,4,6-trien-4-ylmethyl)-4-[(R)-2-(2-methylsulfanyl-phenyl)-pyrrolidin-1-yl]-4-oxo-butyramide] | < 1000 nM | < 1000 nM | 

— patent publication US20170283425A1, “COMPOUNDS FOR THE INHIBITION OF CYCLOPHILINS AND USES THEREOF” (Merck Patent GmbH, priority 2016, published 2017)
